Measurements taken from US20160106689A1, “USE” (Novabiotics Limited, priority 2014, published 2016).
In brackets after ≈: the same amount, converted by molar mass. Structures can show the parent of a compound that is named as a salt. Where two headings read alike, the source gives them in different places.

Test system: Pseudomonas aeruginosa (PAO1)
Assay: MIC100 determination against the type strain of Pseudomonas aeruginosa (PAO1)
Assay type: cell-based
Details: for MIC: Pseudomonas aeruginosa
Procedure: The MIC100 using cysteamine, oxidised cysteamine and cystamine against the type strain of Pseudomonas aeruginosa (PAO1) was determined. Cysteamine and ‘oxidised’ cysteamine (containing some cystamine) were consistently equivalent at either 250 μg/ml or (as shown in the summary table below) 500 μg/ml. We oxidised the cysteamine by leaving the powder exposed to the air (in a sterile environment) for 5 days—during which time it changes in appearance (turning from an off white crystalline morphology to more of a white powder). It often also accrues water as it is hygroscopic and can also react with air to produce water.

[1] = PAO1, in CA-MHB, three replicates, repeated three times, read-out: MIC100 against PAO1 in CA-MHB
[2] = PAO1, in MHB, three replicates, repeated three times, read-out: MIC100 against PAO1 in MHB

MIC [1] [µg/mL] | MIC [2] [µg/mL] | MIC (PAO1, text statement, medium not stated, consistently either 250 or 500 across experiments, read-out: MIC100 against PAO1) [µg/mL] | MIC100 against PAO1 (medium not stated, consistently either 250 or 500 across experiments) [µg/mL] | SMILES | antibacterial activity (in words) (PAO1, oxidised cysteamine compared with fresh cysteamine)
1000 | 1000 |  |  | NCCSSCCN [Cystamine HCl, cystamine] | shown to be antibacterial
500 (≈ 6.48 mM) | 500 (≈ 6.48 mM) | 250 (≈ 3.24 mM) | 500 (≈ 6.48 mM) | NCCS [Cysteamine, cysteamine] | 
